From PMC4413193, “3-[4-(1H-Indol-3-yl)-1,3-thiazol-2-yl]-1H-pyrrolo[2,3-b]pyridines, Nortopsentin Analogues with Antiproliferative Activity” (Marine Drugs, 2015)
“Also recorded” adds a separate entry of the source.

Key:
Format in all cases: cell-based
[1] = test system: NCI-H23; experiment: NCI-60 in vitro tumor cell growth inhibition, NCI-H23 (non-small cell lung cancer); settings: Homo sapiens, five concentration levels
Experimental: (§1) All the synthesized thiazoles 3a–k were evaluated by the National Cancer Institute (Bethesda MD) for cytotoxicity against the NCI-60 cell line panel using standard protocols. Initially, the selected derivatives 3c,d,g,h,j,k were tested at a single dose (10^−5 M) on the full panel of approximately 60 human tumor cell lines derived from 9 human cancer cell types, that have been grouped in disease sub-panels including leukemia, non-small-cell lung, colon, central nervous system (CNS), melanoma, ovarian, renal, prostate and breast cancers (data not shown). Compounds 3d and 3k were further selected for full evaluation at five concentration levels (10^−4–10^−8 M).
(§2) The antitumor activity of compounds 3d and 3k was given by three parameters for each cell line: GI50 (the molar concentration of the compound that inhibits 50% net cell growth), TGI (the molar concentration of the compound leading to total inhibition of net cell growth), and LC50 (the molar concentration of the compound that induces 50% net cell death). The average values of mean graph midpoint (MG_MID) were calculated for each of these parameters.

[2] = test system: SK-OV-3; experiment: NCI-60 in vitro tumor cell growth inhibition, SK-OV-3 (ovarian cancer); settings: Homo sapiens, five concentration levels
Experimental: as §1, §2

[3] = test system: RPMI-8226; experiment: NCI-60 in vitro tumor cell growth inhibition, RPMI-8226 (leukemia); settings: Homo sapiens, five concentration levels 10^−4–10^−8 M
Experimental: as §1, §2

[4] = test system: K-562; experiment: NCI-60 in vitro tumor cell growth inhibition, K-562 (leukemia); settings: Homo sapiens, K562, five concentration levels 10^−4–10^−8 M
Experimental: as §1, §2

[5] = test system: UO-31; experiment: NCI-60 in vitro tumor cell growth inhibition, UO-31 (renal cancer); settings: Homo sapiens, five concentration levels
Experimental: as §1, §2

[6] = test system: M14; experiment: NCI-60 in vitro tumor cell growth inhibition, M14 (melanoma); settings: Homo sapiens, five concentration levels
Experimental: as §1, §2

[7] = test system: IGROV1; experiment: NCI-60 in vitro tumor cell growth inhibition, IGROV1 (ovarian cancer); settings: Homo sapiens, IGROV-1, five concentration levels
Experimental: as §1, §2

[8] = test system: EKVK; experiment: NCI-60 in vitro tumor cell growth inhibition, EKVK (non-small cell lung cancer); settings: Homo sapiens, five concentration levels
Experimental: as §1, §2

[9] = test system: MDA-MB-231/ATCC; experiment: NCI-60 in vitro tumor cell growth inhibition, MDA-MB-231/ATCC (breast cancer); settings: Homo sapiens, five concentration levels
Experimental: as §1, §2

[10] = test system: normal immortalized human liver cells (Chang); experiment: MTT viability assay, Chang liver cells; settings: identical conditions to HepG2 (72 h, 0.1–10 μM)
Experimental: Cell growth inhibitory activity of compounds 3d and 3k was also investigated on human HepG2 hepatocarcinoma cells, a cell line not included in the NCI panel and of interest in the drug discovery because provided with a very active microsomal system for detoxification of xenobiotics. Monolayer cultures treated for 72 h with 0.1–10 μM concentrations of the compounds were examined by 3-(4,5-dimethylthiazol-2-yl)-2,5-diphenyltetrazolium bromide (MTT) assay for cell growth. […] Human cell lines of hepatoma HepG2 and Chang liver were purchased from American Type Culture Collection, Rockville, MD, USA. Cells were grown in RPMI supplemented with 2 mM L-glutamine, 10% FBS, 100 U/mL penicillin, 100 μg/mL streptomycin and 5 μg/mL gentamicin. HepG2 culture medium also contained 1.0 mM sodium pyruvate. Cells were maintained in log phase by seeding twice a week at a density of 3 × 10^8 cells/L in humidified 5% CO2 atmosphere, at 37 °C. In all experiments, cells were made quiescent through overnight incubation before the treatment with the compounds or vehicle alone (control cells). No differences were found between cells treated with DMSO 0.1% and untreated cells in terms of cell number and viability. […] Briefly, HepG2 and Chang cells were plated at 5 × 10^4 cells/well in 96-well plates containing 200 μL RPMI. […] The absorbance at 540 nm was measured in a microplate reader (Bio-RAD, Hercules, CA, USA). […]

[11] = test system: OVCAR-5; experiment: NCI-60 in vitro tumor cell growth inhibition, OVCAR-5 (ovarian cancer); settings: Homo sapiens, five concentration levels
Experimental: as §1, §2

[12] = test system: OVCAR-8; experiment: NCI-60 in vitro tumor cell growth inhibition, OVCAR-8 (ovarian cancer); settings: Homo sapiens, five concentration levels
Experimental: as §1, §2

[13] = test system: MCF7; experiment: NCI-60 in vitro tumor cell growth inhibition, MCF7 (breast cancer); settings: Homo sapiens, five concentration levels
Experimental: as §1, §2

[14] = test system: 786-0; experiment: NCI-60 in vitro tumor cell growth inhibition, 786-0 (renal cancer); settings: Homo sapiens, five concentration levels
Experimental: as §1, §2

[15] = test system: DU-145; experiment: NCI-60 in vitro tumor cell growth inhibition, DU-145 (prostate cancer); settings: Homo sapiens, five concentration levels
Experimental: as §1, §2

[16] = test system: COLO-205; experiment: NCI-60 in vitro tumor cell growth inhibition, COLO-205 (colon cancer); settings: Homo sapiens, five concentration levels
Experimental: as §1, §2

[17] = test system: OVCAR-4; experiment: NCI-60 in vitro tumor cell growth inhibition, OVCAR-4 (ovarian cancer); settings: Homo sapiens, five concentration levels
Experimental: as §1, §2

[18] = test system: A498; experiment: NCI-60 in vitro tumor cell growth inhibition, A498 (renal cancer); settings: Homo sapiens, five concentration levels
Experimental: as §1, §2

[19] = test system: HL-60(TB); experiment: NCI-60 in vitro tumor cell growth inhibition, HL-60(TB) (leukemia); settings: Homo sapiens, five concentration levels 10^−4–10^−8 M
Experimental: as §1, §2

[20] = test system: OVCAR-3; experiment: NCI-60 in vitro tumor cell growth inhibition, OVCAR-3 (ovarian cancer); settings: Homo sapiens, five concentration levels
Experimental: as §1, §2

[21] = test system: NCI-H322M; experiment: NCI-60 in vitro tumor cell growth inhibition, NCI-H322M (non-small cell lung cancer); settings: Homo sapiens, five concentration levels
Experimental: as §1, §2

[22] = test system: SK-MEL-2; experiment: NCI-60 in vitro tumor cell growth inhibition, SK-MEL-2 (melanoma); settings: Homo sapiens, five concentration levels
Experimental: as §1, §2

[23] = test system: MOLT-4; experiment: NCI-60 in vitro tumor cell growth inhibition, MOLT-4 (leukemia); settings: Homo sapiens, five concentration levels 10^−4–10^−8 M
Experimental: as §1, §2

[24] = test system: SK-MEL-5; experiment: NCI-60 in vitro tumor cell growth inhibition, SK-MEL-5 (melanoma); settings: Homo sapiens, five concentration levels
Experimental: as §1, §2

[25] = test system: UACC-62; experiment: NCI-60 in vitro tumor cell growth inhibition, UACC-62 (melanoma); settings: Homo sapiens, five concentration levels
Experimental: as §1, §2

[26] = test system: SN12C; experiment: NCI-60 in vitro tumor cell growth inhibition, SN12C (renal cancer); settings: Homo sapiens, five concentration levels
Experimental: as §1, §2

[27] = test system: HOP-62; experiment: NCI-60 in vitro tumor cell growth inhibition, HOP-62 (non-small cell lung cancer); settings: Homo sapiens, five concentration levels
Experimental: as §1, §2

[28] = test system: NCI-H460; experiment: NCI-60 in vitro tumor cell growth inhibition, NCI-H460 (non-small cell lung cancer); settings: Homo sapiens, five concentration levels
Experimental: as §1, §2

SMILES	GI50 [1] [nM]	GI50 [2] [nM]	GI50 [3] [nM]	GI50 [4] [nM]	GI50 [5] [nM]	GI50 [6] [nM]	GI50 [7] [nM]	GI50 [8] [nM]	GI50 [9] [nM]	viability of normal immortalized human liver cells (Chang) [10]	GI50 [11] [nM]	GI50 [12] [nM]	GI50 [13] [nM]	GI50 [14] [nM]	GI50 [15] [nM]	GI50 [16] [nM]	GI50 [17] [nM]	GI50 [18] [nM]	GI50 [19] [nM]	GI50 [20] [nM]	further results
Cn1cc(-c2csc(-c3cn(C)c4ncccc34)n2)c2ccccc21 [Compound 3d, 1-Methyl-3-[4-(1-methyl-1H-indol-3-yl)-1,3-thiazol-2-yl]-1H-pyrrolo[2,3-b]pyridine]	720	570	450	70	900	270	1330	910	2820	did not affect normal immortalized human liver cells (Chang); also recorded: did not substantially impaired viability	1410	660	330	970	390	190	7220	500	290	100	GI50 [21]: 760 nM; GI50 [22]: 580 nM; GI50 [23]: 670 nM; GI50 [24]: 240 nM; GI50 [25]: 300 nM; GI50 [26]: 12100 nM; GI50 [27]: 810 nM; GI50 [28]: 300 nM
Cn1cc(-c2nc(-c3c[nH]c4ccccc34)cs2)c2cccnc21 [Compound 3k, 3-[4-(1H-Indol-3-yl)-1,3-thiazol-2-yl]-1-methyl-1H-pyrrolo[2,3-b]pyridine]	670	520	650	120	690	280	1180	910	1290	did not affect normal immortalized human liver cells (Chang); also recorded: did not substantially impaired viability	2390	820	370	720	560	190	520	370	320	250	GI50 [22]: 410 nM; GI50 [23]: 660 nM; GI50 [24]: 270 nM; GI50 [25]: 420 nM; GI50 [26]: 5480 nM; GI50 [27]: 930 nM; GI50 [28]: 370 nM
